Reference: US20230285442A1, “USE OF OLIGOCHITOSANS AND DERIVATIVES THEREOF FOR NEUTRALIZING VIRAL AGENTS” (priority 2020, published 2023)

Columns and labels:
HIV-89.6 = assay: HIV binding in culture supernatant, total HIV RNA in supernatant; settings: non-sulfated, unmodified oligochitosan
Method: The desired compound in PBS or DMSO was incubated with virus for 30 min and then centrifuged. Total RNA isolated from supernatant was quantified. The assay was done in triplicate.
Medium/blood samples. To ensure uniformity and reproducibility, standards with known viral copy numbers of HIV89.6 (NIH NIAID repository) were prepared. A known amount of virus was spiked into cell culture medium in ten-fold serial dilutions. HIV-1 RNA was extracted using the High Pure viral RNA kit (Ambion). Complementary DNA (cDNA) was synthesized with the SuperScript III cDNA Synthesis Kit (Invitrogen) and amplified and quantified using primers specific for HIV-1 LTR. Real-time PCR amplification was performed in a CFX96™ Real-Time system (Bio-Rad, Hercules, CA). […] HIV-1 specific amplicons were detected using SYBR Green (Bio-Rad). The number of HIV-1 RNA copies in each test template was measured by its threshold cycle (Ct) as determined from the curve of serially diluted standards using data analysis software (Bio-Rad CFX Manager). […] Quantification of HIV-1 RNA in each test sample was back calculated and viral load was expressed as copies/ml. […]
Quantitative real time PCR was performed using BioRad CFX 96 with the known amounts of HIV-1 RNA as standards. The starting quantity of HIV-1 RNA in the samples treated with different compounds was determined using the standard curve and is plotted on the graph. […]

HIV-1 89.6 = assay: Anti-HIV activity in PBMC culture ex vivo, p24 in culture supernatants; type: cell-based, human; settings: PBMCs infected with HIV-1 89.6, day 3 of the culture
Method: PBMCs were treated with NCD1 or not treated, followed by infection with HIV-1 89.6. Samples were pelleted on days 0, 2, and 3. Culture supernatants were assayed for p24 concentration. The assay was done in triplicate.
HIV p24 Assay: HIV-1 p24 ELISA was performed using HIV-1 p24 antigen capture assay according to manufacturer's protocol (Advanced BioSciences Laboratory).
To confirm the activity of the newly synthesized compounds in HIV infected human cells, peripheral blood mononuclear cells (PBMCs) from healthy humans were cultured and parallel assays with PBMCs treated with NCD1 and samples with no treatment were run, followed by infection with HIV-1 89.6. Samples were pelleted on days 0, 2, and 3. Culture supernatants were assayed for p24 concentration.

Solubility in water = type: physicochemical

Substance	binding to HIV (HIV-89.6)	p24 levels in culture supernatants, treated vs non-treated cells (HIV-1 89.6)	solubility in water (Solubility in water)
Oligochitosan 10 kDa [NCD1]	surprising and unexpected binding to HIV	significantly reduced	soluble
Starch azure [NCD9]	–	–	insoluble in water
